How the values were obtained:
wild-type CFTR = test: Chloride currents in Ussing chamber, NuLi-1 cells; type: cell-based, human; settings: peptide 10-30 μM, P1 30 μM
Experimental: Human airway epithelial cell lines expressing a wild-type CFTR (NuLi-1) or with the ΔF508 mutation (CuFi-1) were purchased from ATCC (NuLi-1 product code: ATCC® CRL-4011™; CuFi-1 product code: ATCC® CRL-4013™). Cells were cultured in Dulbecco's Modified Eagle Medium (DMEM, Gibco, Carlsbad, Calif.) supplemented with 10% fetal bovine serum (FBS), 30 μg/mL of penicillin, 100 μg/mL of streptomycin and 300 μg/mL hygromycin B (Gibco, Carlsbad, Calif.).
To measure chloride currents in normal and ΔF508 primary human bronchial epithelial cells, cells were cultured on 1.12 cm^2 Snapwell inserts. Filters were mounted in Ussing chambers, and a chloride gradient was applied by incubating the cells in a basolateral high-chloride buffer containing (in mmol/L): 140 NaCl, 5 KCl, 0.36 K2HPO4, 0.44 KH2PO4, 1.3 CaCl2, 0.5 MgCl2, 4.2 NaHCO3, 10 HEPES, and 10 glucose, at pH 7.4 and an apical low-chloride buffer containing (in mmol/L): 133.3 Na-gluconate, 5 K-gluconate, 2.5 NaCl, 0.36 K2HPO4, 0.44 KH2PO4, 5.7 CaCl2, 0.5 MgCl2, 4.2 NaHCO3, 10 HEPES, and 10 mannitol, at pH 7.4. Buffers were aerated with a mixture of 95% O2 and 5% CO2 and the temperature was maintained at 37° C. during the experiment. […] After a stabilization period of 30 minutes, drugs were added at specific times, while the current was continuously recorded.

[1] = tested on: airway hyperreactivity induced by the muscarinic agonist methacholine in healthy mice; test: Airway hyperreactivity to methacholine in healthy mice; type: in vivo, BALB/C mice; settings: peptide 1.5 μg or equimolar P1, increasing doses of methacholine
β2-AR/cAMP signaling = test: FRET imaging of cAMP (ICUE3 probe) in hBSMCs after β2-AR stimulation; type: cell-based, human; settings: hBSMCs pre-treated 50 μM, 30 minutes; ISO 100 nM + CGP-20712A 100 nM
Experimental: Human bronchial smooth muscle cells (hBSMCs) were transfected with a plasmid encoding the FRET probe for cAMP, ICUE3 (described in the U.S. Pat. No. 8,236,523 B2) (2), by electroporation with a Nucleofector device (AMAXA, Gaithersburg, Md.), according to the manufacturer's protocol. Briefly, 1×10^6 cells were re-suspended in 100 μL of nucleofection solution (VPI-1004, AMAXA, Gaithersburg, Md.), mixed with 1 μg of pcDNA3-ICUE3 (described in U.S. Pat. No. 8,236,523 B2), and subjected to electroporation in a nucleofection apparatus of Amaxa Biosystems (Program A-033). Live cell imaging experiments were performed at 24 hours after transfection.
Measurements of cAMP levels were performed on human bronchial smooth muscle cells (hBSMCs) that express the FRET probe ICUE3, as described previously (2). Briefly, cells were maintained in a K^+-Ringer solution containing (in mmol/L) 121.6 NaCl, 5.4 KCl, 1.8 MgCl2, 1.8 CaCl2, 4 NaHCO3, 0.8 NaH2PO4, 5 D-glucose, 5 sodium pyruvate, 10 HEPES, at pH 7.4. […] FRET efficiency was calculated using the “Method 3” provided by the Leica wizard application for FRET imaging and sensitized emission, according to which: EA(i)=B/A, where EA(i) is the apparent FRET efficiency; A and B are the intensities of the CFP channel and FRET, respectively. […]

[2] = tested on: cAMP levels in the airways; test: cAMP extraction and quantification in trachea and lungs of treated mice; type: in vivo, BALB/C mice; settings: intra-tracheal, 1.5 μg/mouse, 30 minutes; vs PBS or P1 control peptide
Experimental: Lungs and trachea were explanted from animals following euthanasia, pulverized in liquid nitrogen and used for cold extraction of cAMP with 6% trichloroacetic acid. Samples were sonicated for 10 seconds and centrifuged at 13000 rpm at 4° C. for 15 minutes. Supernatants were washed four times with five volumes of diethyl ether saturated with water and lyophilized. cAMP content was detected with an Amersham cAMP BioTrak Enzymeimmunoassay System (GE Healthcare Life Sciences, Pittsburgh, USA, product code: RPN225), according to the manufacturer's protocol.
Wild-type BALB/C mice were injected by the intra-tracheal route with 1.5 μg of the Trojan peptide derived from PI3Kγ conjugated to fluorescein or vehicle, in a final volume of 70 μL of PBS. After 30 minutes, animals were anesthetized, the trachea and lungs were insufflated with PBS, extracted and frozen in OCT. Cryosections of 10 microns were obtained with a Leica CM1850 cryostat (Leica Microsystems GmbH, Wetzlar, Germany) and fluorescence was acquired with a Zeiss Observer-Z1, equipped with an Apotome module (Carl Zeiss, Oberkochen, Germany).

Sequence: RQIKIWFQNRRMKWKKGKATHRSPGQIHLVQRHPPSEESQAF (fusion peptide comprising SEQ ID No.1 and SEQ ID No.3) [Trojan peptide derived from PI3Kγ]
- CFTR-dependent Cl− currents (wild-type CFTR): increased significantly
- airway hyperreactivity induced by methacholine (average lung resistance) [1]: significantly attenuated
- increase of cAMP accumulation following stimulation of β2-ARs (β2-AR/cAMP signaling): 35%
- cAMP levels in the trachea and in the lungs, higher than controls [2]: 30%

From patent US11352400B2, “PI3K gamma inhibitor peptide for treatment of respiratory system diseases” (Kither Biotech S.r.I., priority 2014, dated 2022)
